pEC50: −log10 of the molar value. Bounds are passed on as bounds.

The target in one assay is DYRK1A kinase (Homo sapiens, UniProt Q13627). The assay is described as follows: DYRK1A kinase activity (Ser/Thr 18 peptide Z-lyte FRET assay).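 Note: kinase activity read as coumarin/fluorescein emission ratio after development step, with unphosphorylated and phosphorylated peptide forms setting 0% and 100% controls, values from dose-response curves.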 In kind it is biochemical. Conditions: recombinant DYRK1A, 30 μM ATP, one hour at room temperature.
In another assay the target is GSK3β kinase (Homo sapiens, UniProt P49841). Description: GSK3β kinase activity (Ser/Thr 09 peptide Z-lyte FRET assay). In kind it is biochemical. As to conditions: recombinant kinase, 46 μM ATP, one hour at room temperature; read-out: EC50.
GSK3β kinase, sequence (P49841 whole entry): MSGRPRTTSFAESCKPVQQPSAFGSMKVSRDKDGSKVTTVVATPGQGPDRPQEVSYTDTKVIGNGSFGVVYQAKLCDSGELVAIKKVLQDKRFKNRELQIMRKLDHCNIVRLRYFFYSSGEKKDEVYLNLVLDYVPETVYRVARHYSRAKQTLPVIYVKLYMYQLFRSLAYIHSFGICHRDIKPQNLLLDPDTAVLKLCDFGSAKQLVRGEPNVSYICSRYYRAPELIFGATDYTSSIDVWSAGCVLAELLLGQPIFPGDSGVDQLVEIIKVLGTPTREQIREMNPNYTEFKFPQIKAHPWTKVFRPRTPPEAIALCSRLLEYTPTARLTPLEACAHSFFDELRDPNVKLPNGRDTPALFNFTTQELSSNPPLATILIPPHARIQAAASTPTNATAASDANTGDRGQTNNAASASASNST
The test system of assay [1] is SW480 colon carcinoma cells. The assay is described as follows: Cell viability assay (CellTiter-Glo). Conditions: Homo sapiens; for pEC50: SW480, 96 h; for inhibition at 10 µM: SW480, read-out: percent inhibition at 10 μM.
The subject of assay [2] is Wnt-responsive Sp5-Luc reporter in SW480 colon carcinoma cells. The assay is described as follows: Screening assay for Wnt activity (Sp5-Luc reporter gene assay). Conditions: Homo sapiens; for pEC50: SW480; for inhibition at 10 µM: SW480, read-out: percent inhibition at 10 μM. Background: In a reporter assay the amount or activity of a reporter protein is the signal.
For a further assay, the system named is IL-6. The assay is described as follows: IL-6 inhibition in LPS-stimulated human peripheral blood mononuclear cells (HTRF). As to conditions: Homo sapiens, PBMC; for pEC50: 22 h; for inhibition at 10 µM: read-out: percentage in parentheses after EC50 >10.
Assay [3] concerns α-smooth muscle actin (aSMA) positive LL29 cells. Description: Inhibition of the fibrotic process: αSMA staining in TGF-β1 treated LL29 fibroblasts from IPF patients. As to conditions: Homo sapiens, Fibroblast; for pEC50: 96 h; for inhibition at 10 µM: read-out: percentage in parentheses after EC50 >10.

By pEC50 is commonly meant −log10 of the EC50, conventionally taken in molar units. For the molecule `Cc1ncc(-c2ccc3cnc(NC(=O)N4CCC(N(C)C)CC4)cc3n2)s1` [Compound 662, 4-(Dimethylamino)-N-(2-(2-methylthiazol-5-yl)-1,6-naphthyridin-7-yl) piperidine-1-carboxamide], the pEC50 is less than 5.00 at DYRK1A kinase; less than 5.00 at GSK3β kinase; less than 5.00 in assay [1]; less than 5.00 in assay [2]; less than 5.00 with IL-6; 5.12 in assay [3]. Moreover, the inhibition at 10 µM in assay [1] amounted to 17.3%; in assay [2], 26%; with IL-6 it was 10.5%.

In the case of `Cn1cc(-c2cnc3cnc(NC(=O)c4ccc5nccnc5c4)cc3c2)cn1` [Compound 2936, N-(3-(1-Methyl-1H-pyrazol-4-yl)-1,7-naphthyridin-6-yl)quinoxaline-6-carboxamide], the pEC50 (at DYRK1A kinase; on GSK3β kinase; in assay [1]; in assay [2]; in the assay on IL-6; in assay [3]) was less than 5.00 throughout. The inhibition at 10 µM in assay [1] was determined as 17.8%; in assay [2] it was 11.9%; with IL-6, 8.3%; in assay [3], 21.6%.

As for `Cn1cnnc1-c1cnc2cnc(NC(=O)C3CCN(CCC(F)(F)F)CC3)cc2c1` [Compound 3111, N-(3-(4-Methyl-4H-1,2,4-triazol-3-yl)-1,7-naphthyridin-6-yl)-1-(3,3,3-trifluoropropyl)piperidine-4-carboxamide], the pEC50 is 6.42 on DYRK1A kinase; 5.67 at GSK3β kinase; less than 5.00 in assay [1]; less than 5.00 in assay [2]; less than 5.00 in the assay on IL-6; less than 5.00 in assay [3]. The inhibition at 10 µM in assay [1] came out at 16.1%; in assay [2] it was 9.7%; in the assay with IL-6, 7.5%; in assay [3], 46.4%.

Turning to `CCN(CC)CC(=O)Nc1cc2nc(-c3cnn(C)c3CN3CCCCC3)ccc2cn1` [Compound 283, 2-(Diethylamino)-N-(2-(1-methyl-5-(piperidin-1-ylmethyl)-1H-pyrazol-4-yl)-1,6-naphthyridin-7-yl)acetamide], the negative logarithm of the EC50 (pEC50) at DYRK1A kinase was 6.16; on GSK3β kinase, 5.93; in assay [1], 5.37; in assay [2], less than 5.00; with IL-6, less than 5.00; in assay [3] it was 5.41. In addition, the figures for the inhibition at 10 µM (in assay [2]; in the assay on IL-6) were 43.6% and 7.4%, respectively.

Take `Cn1cncc1-c1ccc2cnc(NC(=O)C3CCC(F)(F)CC3)cc2n1` [Compound 400, 4,4-Difluoro-N-(2-(1-methyl-1H-imidazol-5-yl)-1,6-naphthyridin-7-yl) cyclohexane-1-carboxamide]: the pEC50 on DYRK1A kinase is 6.92; on GSK3β kinase, 7.44; in assay [1], 5.62; in assay [2] it was 5.87; in the assay on IL-6, 5.44; in assay [3], 5.83.

Turning to `CN1CC(COc2cncc(-c3ccc4cnc(NC(=O)c5ccc(F)cc5)cc4n3)n2)C1` [Compound 4564, 4-fluoro-N-(2-(6-((1-methylazetidin-3-yl)methoxy)pyrazin-2-yl)-1,6-naphthyridin-7-yl)benzamide], the pEC50 on DYRK1A kinase was 5.99; on GSK3β kinase it was less than 5.00; in assay [1] it was less than 5.00; in assay [2], less than 5.00; in the assay with IL-6 it was less than 5.00; in assay [3], less than 5.00. Besides, the inhibition at 10 µM came out at 21.1% in assay [1], 33.3% in assay [2], 0% in the assay on IL-6 and 26.8% in assay [3].

For `COC1CCN(CC(=O)Nc2cc3cc(-c4cn(C)nn4)ncc3cn2)CC1` [Compound 3985, 2-(4-Methoxypiperidin-1-yl)-N-(6-(1-methyl-1H-1,2,3-triazol-4-yl)-2,7-naphthyridin-3-yl)acetamide], the pEC50 was 6.12 at DYRK1A kinase; 5.91 on GSK3β kinase; less than 5.00 in assay [1]; less than 5.00 in assay [2]; less than 5.00 in the assay with IL-6; 5.08 in assay [3]. The inhibition at 10 µM in assay [1] was 34.9%; in assay [2] it was 49.8%; in the assay with IL-6, 5.2%.

With `O=C(Nc1ncc2ccc(-c3cnco3)cc2n1)C1CCN(C(=O)CN2CCCC2)CC1` [Compound 1438, N-(7-(Oxazol-5-yl)quinazolin-2-yl)-1-(2-(pyrrolidin-1-yl)acetyl)piperidine-4-carboxamide], the pEC50 at DYRK1A kinase is 7.00; at GSK3β kinase, 5.29; in assay [1], less than 5.00; in assay [2] it was less than 5.00; with IL-6, less than 5.00; in assay [3] it was less than 5.00. Besides, the inhibition at 10 µM in assay [1] came to 14.7%; in assay [2] it was 10%; in the assay on IL-6, 9.6%; in assay [3] it was 29.6%.

For `Cn1cc(-c2ccc3cnc(NC(=O)C(C)(C)F)nc3c2)nn1` [Compound 1239, 2-Fluoro-2-methyl-N-(7-(1-methyl-1H-1,2,3-triazol-4-yl)quinazolin-2-yl) propanamide], the negative logarithm of the EC50 (pEC50) on DYRK1A kinase is 6.77; on GSK3β kinase, 6.95; in assay [1], less than 5.00; in assay [2], less than 5.00; in the assay with IL-6 it was less than 5.00; in assay [3] it was less than 5.00. Besides, the inhibition at 10 µM in assay [1] was determined as 17.2%; in assay [2], 47.4%; in the assay with IL-6, 7.3%; in assay [3] it was 13.5%.

For `Cc1ncc(-c2cnc3cnc(NC(=O)c4ccnc(N5CCN(C)CC5)c4)cc3c2)s1` [Compound 3363, 2-(4-Methylpiperazin-1-yl)-N-(3-(2-methylthiazol-5-yl)-1,7-naphthyridin-6-yl)isonicotinamide], the pEC50 at DYRK1A kinase is 6.92; on GSK3β kinase, 5.00; in assay [1] it was 5.40; in assay [2], less than 5.00; with IL-6, less than 5.00; in assay [3] it was less than 5.00. Besides, the inhibition at 10 µM stood at 32.9% in assay [2], 5.6% in the assay on IL-6 and 34.7% in assay [3].

On to `CCN(CC)CC(=O)Nc1ncc2ccc(-c3cnn(C)c3CN3CCCCC3)cc2n1` [Compound 1189, 2-(Diethylamino)-N-(7-(1-methyl-5-(piperidin-1-ylmethyl)-1H-pyrazol-4-yl)quinazolin-2-yl)acetamide], for which the pEC50 at DYRK1A kinase was 6.73; on GSK3β kinase it was 5.77; in assay [1], less than 5.00; in assay [2] it was less than 5.00; in the assay on IL-6, less than 5.00; in assay [3], less than 5.00. Further, the inhibition at 10 µM in assay [1] was 17.4%; in assay [2] it was 29.5%; in the assay on IL-6 it was 7.9%; in assay [3] it was 18%.

`Cc1nnc(-c2ccc3cnc(NC(=O)c4ccnc(N5CCN(C)CC5)c4)nc3c2)s1` [Compound 1656, N-(7-(5-Methyl-1,3,4-thiadiazol-2-yl)quinazolin-2-yl)-2-(4-methylpiperazin-1-yl)isonicotinamide]: the pEC50 at DYRK1A kinase is 7.19; on GSK3β kinase, 6.47; in assay [1] it was 5.66; in assay [2], 5.92; with IL-6 it was less than 5.00; in assay [3], 5.76. In addition, in the assay on IL-6, the inhibition at 10 µM worked out at 6%.

Consider `Cn1cc(-c2cc3cc(NC(=O)C(C)(C)F)ncc3cn2)nn1` [Compound 3960, 2-Fluoro-2-methyl-N-(6-(1-methyl-1H-1,2,3-triazol-4-yl)-2,7-naphthyridin-3-yl)propanamide], for which the pEC50 on DYRK1A kinase is 5.99; at GSK3β kinase it was 5.82; in assay [1], less than 5.00; in assay [2] it was less than 5.00; with IL-6, less than 5.00; in assay [3], less than 5.00. In addition, the inhibition at 10 µM in assay [1] is 38.5%; in assay [2], 44.8%; in the assay on IL-6, 7%; in assay [3], 23.5%.

Take `COC1CCN(CC(=O)Nc2cc3cc(-c4cn(C)nn4)cnc3cn2)CC1` [Compound 3078, 2-(4-Methoxypiperidin-1-yl)-N-(3-(1-methyl-1H-1,2,3-triazol-4-yl)-1,7-naphthyridin-6-yl)acetamide]: the pEC50 is 6.68 on DYRK1A kinase; 6.12 on GSK3β kinase; less than 5.00 in assay [1]; less than 5.00 in assay [2]; less than 5.00 in the assay on IL-6; less than 5.00 in assay [3]. Also, the inhibition at 10 µM in assay [1] was 16%; in assay [2], 11.7%; with IL-6, 7.9%; in assay [3] it was 41%.

`CN1CCN(Cc2cccc(C(=O)Nc3cc4cc(-c5cnn(C)c5)cnc4cn3)c2)CC1` [Compound 2892, N-(3-(1-Methyl-1H-pyrazol-4-yl)-1,7-naphthyridin-6-yl)-3-((4-methylpiperazin-1-yl)methyl)benzamide]: the pEC50 is 7.41 on DYRK1A kinase; less than 5.00 at GSK3β kinase; less than 5.00 in assay [1]; less than 5.00 in assay [2]; less than 5.00 in the assay on IL-6; 5.40 in assay [3]. Further, the inhibition at 10 µM in assay [1] was found to be 36%; in assay [2] it was 46.9%; in the assay on IL-6 it was 16.5%.

The record behind these values is patent publication US10703748B2, “Diazanaphthalen-3-yl carboxamides and preparation and use thereof” (Samumed, LLC, priority 2017, dated 2020).
